# In PMC9238271, “The quorum sensing peptide EntF* promotes colorectal cancer metastasis in mice: a new factor in the host-microbiome interaction” (BMC Biology, 2022):
# Columns and labels:
# [1] = test system: E-cadherin expression in HCT-8 cells; assay: Western blot of E-cadherin expression, HCT-8 cells (EntF*, alanine and D-amino acid analogs); type: cell-based
# Description: (§1) HCT-8, HT-29, and HT-116 cells were grown in DMEM medium supplied with 10% fetal bovine serum (FBS) and 1% penicillin-streptomycin. Caco-2 cells were grown in DMEM medium supplied with 10% FBS, 1% non-essential amino acid NEAA), and 1% penicillin-streptomycin. Cells were cultured at 37 °C and 5% CO2. As cells reached confluency, they were detached using 0.25% Trypsin-EDTA.
# (§2) For Western blot analyses, HCT-8 (n = 15), HCT-116 (n = 12), Caco-2 (n = 6), and HT-29 (n = 12) cells were seeded in 6-well plates at a density of 1 × 10^6 cells/well. Twenty-four hours after seeding, all cell lines were treated with 1 μM EntF* or a placebo solution. HCT-8 cells were also tested for responsiveness to 1 μM EntF* synthetic alanine-derived analogs. For antagonist activity analysis, HCT-8 cells were treated with 1 μM Nef-M1 or 1 μM EntF*A1 alone or in combination with 500 nM EntF*. After 24 h, cells were detached from the surface and lysed in RIPA buffer (Thermo Scientific). Protein concentration was determined using the modified Lowry protein assay kit (Thermo Scientific), according to the manufacturer’s instructions. Protein samples were diluted to the same concentration (4 μg/μL) with water and diluted again 1:1 using 2x Laemmli buffer. After that, samples were boiled for 5 min at 95 °C to denature proteins and centrifuged for 5 min at 16,000g; supernatants were used for Western blot analyses. Equal amounts of total protein (20 μg/lane) were separated by SDS-PAGE on an Any kD^TM gel (Bio-Rad ) and then transferred to a PVDF membrane. Before incubation with antibodies, non-specific binding sites on the membranes were blocked using 5% skimmed milk solution (1 h). TBS buffer with 0.05% Tween 20 was used for all washing steps. Membranes were incubated overnight at 4 °C with an anti-E-cadherin primary antibody (1/1000 dilution). An HRP-conjugated anti-rabbit antibody (1/2000 dilution, 1 h incubation) was used for chemiluminescent detection. Membranes were incubated with the detection substrate for 5 min and signal detection was performed using the ChemiDoc EZ imager and Image Lab software (Bio-Rad). Signal intensity was normalized against the total protein content in each lanes.
# A quantitative approach was used to evaluate the importance of each amino acid, where the Fisher’s LSD p-values of (1) multiple comparisons between EntF* and the alanine (ALA) scan and (2) multiple comparisons between different peptides of the ALA scan are combined. Subsequently, based on the combined P-score, the amino acids were classified in 5 classes using a hierarchical cluster analysis and confirmed using the Jenks natural breaks algorithm with K = 5. CombinedPscore=1-PPBSvsALAscan*PEntF*vsALAscan
# [2] = test system: E-cadherin expression in HT-29 cells; assay: Western blot of E-cadherin expression, HT-29 cells; type: cell-based
# Description: as §1
# as §2, with “Signal intensity was normalized against the total protein content in each lanes.” left out
# [3] = test system: tumor nodules in the liver; assay: Orthotopic mouse model: histopathological evaluation of liver; type: in vivo, female athymic nude mice (Swiss nu/nu)
# Description: Six-week-old female athymic nude mice (Swiss nu/nu) were anesthetized, and a minimally invasive midline laparotomy was performed to localize the cecum. The cecum was then gently pulled out, and luciferase-transfected HCT-8/E11 cells (1 × 10^6 cells) in 20 μL serum-free DMEM medium with Matrigel (1:1) were injected into the cecal wall. Before implantation, cells were treated with EntF* (10^2 nM), Phr0662 (10^2 nM), vehicle (PBS), or TGFα positive control (0.1 μg mL^−1) solutions for 5 days. The cecum was then carefully placed back into the abdominal cavity and the surgical incision was closed with two layers of sutures with PDS 6-0. […] Once a week, mice were examined for tumor growth and metastases using bioluminescent imaging with the IVIS Lumina II (Perkin Elmer, Belgium) after i.p. injection with 200 μL luciferin (150 mg kg^−1). After 6 weeks, mice were euthanized using cervical dislocation, and the liver, diaphragm, lungs, cecum, duodenum, and peritoneum were macroscopically examined for the presence of tumor nodules. Liver and lung tissues were then fixed in formalin for 24 h and stored in 70% ethanol for maximum 3 days before embedding in paraffin. Next, a hematoxylin and eosin (H&E) staining was performed on 8 μm sections, and 3 sections per mouse were visualized using microscopy. Slides from tumor-bearing mice were analyzed by two blinded, independent investigators using the scoring system described in Additional file 5: Table S3. In case of differences, slides were scored by a third blinded, independent investigator for consensus.
structure (smiles),measurement,setting,value
"CC(C)C[C@@H]1NC(=O)[C@H](CO)NC(=O)[C@H](Cc2ccccc2)NC(=O)[C@H](C(C)C)NC(=O)[C@@H](NC(=O)[C@H](CCC(=O)O)NC(=O)[C@@H](NC(=O)[C@H](CC(C)C)NC(=O)[C@H](CC(N)=O)NC(=O)[C@@H](N)CO)C(C)C)CSSC[C@@H](C(=O)N[C@@H](CC(N)=O)C(=O)O)NC(=O)[C@H](CCCCN)NC(=O)[C@H](CCCCN)NC(=O)[C@H](Cc2ccccc2)NC1=O (single isomer, unassigned) [EntF*]",effect on E-cadherin levels in HCT-8 cells,"[1]; 24 h, n = 15",significant decrease
same,Relative E-cadherin decrease,"[1]; Ala-scan sheet, Blot 19 (single blot), chemiluminescence band, placebo lane = 100",54.8007
same,E-cadherin expression relative to H2O control (= 100),"[1]; Ala-scan sheet, Blot 20 (single blot), chemiluminescence band, placebo lane = 100",67.4208
same,Relative E-cadherin decrease,"[1]; Ala-scan sheet, Blot 21 (single blot), chemiluminescence band, placebo lane = 100",65.0177
same,E-cadherin expression relative to H2O control (= 100),"[1]; Ala-scan sheet, Blot 24 (single blot), chemiluminescence band, Norm. Vol. relative to placebo lane = 100",28.5
same,E-cadherin expression relative to H2O control (= 100),"[1]; Ala-scan sheet, Blot 25 (single blot), chemiluminescence band, Norm. Vol. relative to placebo lane = 100",21.0
same,E-cadherin expression relative to H2O control (= 100),"[1]; Ala-scan sheet, Blot 26 (single blot), chemiluminescence band, Norm. Vol. relative to placebo lane = 100",35.9
same,E-cadherin expression relative to H2O control (= 100),"[1]; Ala-scan sheet, Blot 27 (single blot), chemiluminescence band, Norm. Vol. relative to placebo lane = 100",217.9
same,E-cadherin expression relative to H2O control (= 100),"[1]; Ala-scan, Blot 11 (single blot replicate), normalized band volume relative to Placebo = 100.0",93.8
same,E-cadherin expression relative to H2O control (= 100),"[1]; Ala-scan, Blot 12 (single blot replicate), normalized band volume relative to Placebo = 100.0",85.9
same,E-cadherin expression relative to H2O control (= 100),"[1]; Ala-scan, Blot 13 (single blot replicate), normalized band volume relative to Placebo = 100.0",94.6
same,E-cadherin expression relative to H2O control (= 100),"[1]; Ala-scan, Blot 14 (single blot replicate), normalized band volume relative to Placebo = 100.0",84.9
same,E-cadherin expression relative to H2O control (= 100),"[1]; Ala-scan, Blot 18 (single blot replicate), normalized band volume relative to Placebo = 100.0",74.8
same,E-cadherin expression relative to H2O control (= 100),"[1]; D-scan, Blot 1 (replicate), Norm. Vol. relative to H2O lane = 100.0, chemiluminescence",92.9
same,E-cadherin expression relative to H2O control (= 100),"[1]; D-scan, Blot 2 (replicate), Norm. Vol. relative to H2O lane = 100.0, chemiluminescence",90.1
same,E-cadherin expression relative to H2O control (= 100),"[1]; D-scan, Blot 3 (replicate), Norm. Vol. relative to H2O lane = 100.0, chemiluminescence",85.4
same,E-cadherin expression relative to H2O control (= 100),"[1]; D-scan, Blot 4 (replicate), Norm. Vol. relative to H2O lane = 100.0, chemiluminescence",88.3
same,E-cadherin expression relative to H2O control (= 100),"[1]; D-scan, Blot 6 (replicate), Norm. Vol. relative to H2O lane = 100.0, chemiluminescence",95.4
same,E-cadherin expression relative to H2O control (= 100),"[1]; D-scan, Blot 7 (replicate), Norm. Vol. relative to H2O lane = 100.0, chemiluminescence",92.1
same,E-cadherin expression relative to H2O control (= 100),"[1]; D-scan, Blot 8 (replicate), Norm. Vol. relative to H2O lane = 100.0, chemiluminescence",99.2
same,E-cadherin expression relative to H2O control (= 100),"[1]; D-scan, Blot 9 (replicate), Norm. Vol. relative to H2O lane = 100.0, chemiluminescence",67.6
same,E-cadherin expression relative to H2O control (= 100),"[1]; D-scan, Blot 10 (replicate), Norm. Vol. relative to H2O lane = 100.0, chemiluminescence",83.3
same,E-cadherin expression relative to H2O control (= 100),"[1]; D-scan, Blot 11 (replicate), Norm. Vol. relative to H2O lane = 100.0, chemiluminescence",74.5
same,E-cadherin expression relative to H2O control (= 100),"[1]; D-scan, Blot 12 (replicate), Norm. Vol. relative to H2O lane = 100.0, chemiluminescence",74.5
same,E-cadherin expression relative to H2O control (= 100),"[1]; H2O = 100.0, CXCL12 at 10µg/ml, mean of the replicates (row r47, unlabelled; SEM in row below)",85.8
same,E-cadherin expression relative to H2O control (= 100),"[1]; H2O = 100.0, CXCL12 at 10µg/ml, replicate 1 (row r35)",92.9
same,E-cadherin expression relative to H2O control (= 100),"[1]; H2O = 100.0, CXCL12 at 10µg/ml, replicate 2 (row r36)",90.1
same,E-cadherin expression relative to H2O control (= 100),"[1]; H2O = 100.0, CXCL12 at 10µg/ml, replicate 3 (row r37)",85.4
same,E-cadherin expression relative to H2O control (= 100),"[1]; H2O = 100.0, CXCL12 at 10µg/ml, replicate 4 (row r38)",88.3
same,Ala scan: Relative E-cadherin decrease,"[1]; H2O = 100.0, mean of the replicates (row r29, unlabelled; SEM in row below)",62.0
same,E-cadherin expression relative to H2O control (= 100),"[1]; H2O = 100.0, replicate 5 (row r39)",95.4
same,E-cadherin expression relative to H2O control (= 100),"[1]; H2O = 100.0, replicate 6 (row r40)",92.1
same,E-cadherin expression relative to H2O control (= 100),"[1]; H2O = 100.0, replicate 7 (row r41)",99.2
same,E-cadherin expression relative to H2O control (= 100),"[1]; H2O = 100.0, replicate 8 (row r42)",67.6
same,E-cadherin expression relative to H2O control (= 100),"[1]; H2O = 100.0, replicate 9 (row r43)",83.3
same,E-cadherin expression relative to H2O control (= 100),"[1]; H2O = 100.0, replicate 10 (row r44)",74.5
same,E-cadherin expression relative to H2O control (= 100),"[1]; H2O = 100.0, replicate 11 (row r45)",74.5
same,"Relative E-cadherin decrease in different cell lines, Average","[1]; HCT-8 cells, average (EntF* n = 15, CXCL12 n = 4)",62.0
same,effect on E-cadherin expression in HT-29 cells,"[2]; 1 μM EntF* or CXCL12, 24 h, n = 12",statistically significant reduction
same,"Relative E-cadherin expression, average","[2]; HT-29 cells, average of n = 12",73.7
same,number of tumor nodules in the liver compared to the vehicle,"[3]; 6 weeks of treatment, H&E histopathological score, n = 30 EntF*, n = 8 PBS",significantly higher number of tumor nodules
same,"Histology scoring LIVER, conclusion per group",[3]; per group,1
